# Several values for one entry are separate records, joined by “and”; a condition that tells them apart may be missing. Equal values may be shown once.
# Experiments:
# Type in all cases: in vivo
# [1] = test system: Viola tricolor (wild pansy); assay: Greenhouse postemergence herbicidal effect on VIOTR; settings: for Herbicidal Effects (% visual injury) VIOTR Obs: Ethephon 0 g/ha
# From the text: (§1) Seeds of the desired test plant species were planted in a 90:10% v/v (volume/volume) mixture of PRO-MIX® BX (Premier Tech Horticulture, Quakertown, Pa., USA) and PROFILE® GREENS GRADE™ (Profile Products LLC, Buffalo Grove, Ill., USA) planting mixture, which typically has a pH of 5.2 to 6.2 and an organic matter content of at least 50 percent, in plastic pots with a surface area of 103.2 square centimeters (cm^2). In some aspects, to help ensure good germination and healthy plants, a fungicide treatment and/or other chemical or physical treatment was applied. The plants were grown for 7-36 days (d) in a greenhouse with an approximate 14-hour (h) photoperiod which was maintained at about 23° C. during the day and 22° C. during the night. Nutrients and water were added on a regular basis and supplemental lighting was provided with overhead metal halide 1000-Watt lamps as necessary. The plants were employed for testing when they reached the second or third true leaf stage.
# (§2) Emulsifiable concentrates of each of each pyridine carboxylate herbicide (Compound A or Compound B) were prepared at 100 grams acid equivalent per liter (g ae/L). The emulsifiable concentrates also included a safener, cloquintocet-mexyl, at 120 grams active ingredient per liter (g ai/L). An aliquot of each emulsifiable concentrate was placed in a 25 mL glass vial and diluted with an aqueous mixture of 1.25% (v/v) ACTIROB® B esterified rapeseed oil (Bayer Crop Science, Research Triangle Park, N.C., USA) or MSO® Concentrate with LECI-TECH® methylated soybean oil (Loveland Products, Loveland, Colo., USA) to obtain concentrated stock solutions at the highest application rate for each herbicide, based upon a 12 milliliter (mL) application volume at a rate of 187 liters per hectare (L/ha). The concentrated stock solutions were further diluted with an aqueous mixture of 1.25% v/v ACTIROB® B or MSO® Concentrate with LECI-TECH® to obtain stock solutions at reduced application rates for each herbicide. Spray solutions of the herbicide combinations (Compound A or Compound B plus the PGR) were prepared by adding weighed amounts or aliquots of the PGR to the stock solutions of Compound A or Compound B to form 12-mL spray solutions in two-way combinations.
# (§3) The spray solutions were applied to the plant material with an overhead Mandel track sprayer equipped with 8002E nozzles calibrated to deliver 187 L/ha over an application area of 0.503 square meters (m^2) at a spray height of 18 inches (43 centimeters (cm)) above the average plant canopy. Control plants were sprayed in the same manner with the solvent blank. All pyridine carboxylate herbicide (component a) application rates are given as “g ae/ha” and all PGR (component b) application rates are given as “g ai/ha.”
# (§4) The treated plants and control plants were placed in a greenhouse as described above and watered by sub-irrigation to prevent wash-off of the test compounds. After 20-22 d, the condition of the test plants as compared with that of the control plants was determined visually and scored on a scale of 0 to 100 percent where 0 corresponds to no injury and 100 corresponds to complete kill.
# [2] = test system: Abutilon theophrasti (velvetleaf); assay: Greenhouse postemergence herbicidal effect on ABUTH; settings: for Herbicidal Effects (% visual injury) ABUTH Obs: Ethephon 0 g/ha
# From the text: as §1, §2, §3, §4
# [3] = test system: Stellaria media (chickweed); assay: Greenhouse postemergence herbicidal effect on STEME; settings: for Herbicidal Effects (% visual injury) STEME Obs: Ethephon 0 g/ha
# From the text: as §1, §2, §3, §4
# [4] = test system: Salsola kali (Russian thistle); assay: Greenhouse postemergence herbicidal effect on SASKR
# From the text: as §1
# (§5) Emulsifiable concentrates of each of each pyridine carboxylate herbicide (Compound A or Compound B) were prepared at 100 grams acid equivalent per liter (g ae/L). The emulsifiable concentrates also included a safener, cloquintocet-mexyl, at 120 grams active ingredient per liter (g ai/L). […]
# as §4
# [5] = test system: Matricaria discoidea (pineapple weed); assay: Greenhouse postemergence herbicidal effect on MATMT
# From the text: as §1, §5, §4
smiles,measurement,setting,value
"N#CCOC(=O)c1nc(-c2ccc3cc[nH]c3c2F)c(F)c(N)c1Cl [Compound A, cyanomethyl 4-amino-3-chloro-5-fluoro-6-(7-fluoro-1H-indol-6-yl)pyridine-2-carboxylate]",Herbicidal Effects (% visual injury) VIOTR Obs,[1]; Compound A 7.5 g/ha,13%
same,Herbicidal Effects (% visual injury) VIOTR Obs,[1]; Compound A 10 g/ha,20%
same,% visual injury Obs,[1]; herbicide 15 g ae/ha alone,15%
same,Herbicidal Effects (% visual injury) ABUTH Obs,[2]; Compound A 7.5 g/ha,73%
same,Herbicidal Effects (% visual injury) ABUTH Obs,[2]; Compound A 10 g/ha,85%
same,% visual injury Obs,[2]; herbicide 7.5 g ae/ha alone,40% and 68%
same,% visual injury Obs,[2]; herbicide 10 g ae/ha alone,48% and 80%
same,Herbicidal Effects (% visual injury) STEME Obs,[3]; Compound A 7.5 g/ha,100%
same,Herbicidal Effects (% visual injury) STEME Obs,[3]; Compound A 10 g/ha,100%
same,% visual injury Obs,[3]; herbicide 7.5 g ae/ha alone,89% and 85%
same,% visual injury Obs,[3]; herbicide 10 g ae/ha alone,90% and 88%
same,% visual injury Obs,[3]; herbicide 15 g ae/ha alone,89%
same,% visual injury Obs,[4]; herbicide 7.5 g ae/ha alone,50%
same,% visual injury Obs,[4]; herbicide 10 g ae/ha alone,60%
same,% visual injury Obs,[4]; herbicide 15 g ae/ha alone,63%
same,% visual injury Obs,[5]; herbicide 7.5 g ae/ha alone,20%
same,% visual injury Obs,[5]; herbicide 10 g ae/ha alone,20%
same,% visual injury Obs,[5]; herbicide 15 g ae/ha alone,63%

# Reference: patent US20210392890A1, “COMPOSITIONS COMPRISING PYRIDINE CARBOXYLATE HERBICIDES AND PLANT GROWTH REGULATORS” (Corteva Agriscience LLC, priority 2018, published 2021)
